{"source": "patent US20170007669A1", "about": "“PEPTIDE-MEDIATED DELIVERY OF ACTIVE AGENTS ACROSS THE BLOOD-BRAIN BARRIER” (Mayo Foundation for Medical Education and Research, priority 2015, published 2017)", "key": {"[1]": {"assay": "Tissue distribution of Evans Blue (EB) after delivery via K16ApoE", "type": "in vivo, mice", "settings": "tissues 1 h after EB", "experimental": "Mice were injected with various amounts of K16ApoE peptide (0 μg, 150 μg, 100 μg, 75 μg, 50 μg, 25 and μg) first. EB (40 μL of a 2% solution was injected 10 min after injection of the peptide. Tissues (brains, lungs, heart, liver, spleen and kidney) were collected 1 h after EB delivery. All injections were through the femoral vein."}, "[2]": {"assay": "Residence time of EB dye in brain following transportation by the peptide", "type": "in vivo, mice", "settings": "EB 10 min after 300 μg K16ApoE", "experimental": "A series of mice were administered 300 μg of K16ApoE followed by administration of ˜40 μL 2% EB 10 min after administration of the peptide. As a control, only EB was injected, cardiac perfusion was done 6 hours after EB injection, followed by collection of brain. For all other mice, perfusion and collection of brains was performed 15 min, 30 min, 1 h, 2 h, 4 h, 6 h, 12, h, and 24 h following administration of EB."}, "blood-brain barrier": {"test_system": "blood-brain barrier", "assay": "Transportation of Evan's Blue (EB) dye across the BBB after IV injection of peptide", "type": "in vivo, mouse", "settings": "for EB dye in brain: EB 10 min later, brain collected 1 h after EB", "experimental": "To explore whether K16ApoE (SEQ. ID. NO: 42) compromises integrity of the BBB, the peptide was first injected by IV followed by injection of Evan's Blue (EB; a routinely used small molecule blue dye with a molecular weight of 960.81) by IV into the femoral vein of a mouse. Cardiac perfusion was performed and the brains of the mice were removed and evaluated approximately 2 hours following injection of the dye. As controls, a peptide consisting of 16 lysine residues (K16) and a 20-amino acid peptide comprising the LDLR-binding domain of ApoE (ApoE-FITC; (SEQ ID NO:13)), were used. The particulars of each administration are as follows: • 1) 67.5 nanomoles of K16 injected first, then ˜40 μL 2% EB was injected. • 2) Same as 1 but K16 and EB mixed prior to injection. • 3) 67.5 nanomoles of ApoE-FITC injected first, then ˜40 μL 2% EB was injected. • 4) Same as 3 but ApoE-FITC peptide and EB was mixed prior to injection. • 5) 67.5 nanomoles of K16ApoE injected first, then ˜40 μL 2% EB was injected. • 6) Same as 5 but K16ApoE peptide and EB was mixed first before injection.\nUsing the method described in Example 1, various amounts of K16ApoE (SEQ. ID. NO: 42) was injected followed by administration of ˜40 μL 2% EB. The particulars of each administration are as follows: • 1) EB alone. • 2) 50 μg (11.25 nanomoles) K16ApoE first, followed by administration of EB. • 3) 100 μg (22.5 nanomoles) K16ApoE first, followed by administration of EB. • 4) 200 μg (45 nanomoles) K16ApoE first, followed by administration of EB. • 5) 300 μg (67.5 nanomoles) K16ApoE first, followed by administration of EB.\n˜40 μL of 2% EB was injected 10 min after injection of various amounts of K16ApoE (75 μg, 100 μg, 150 μg, 250 μg, and 300 μg) or K26ApoE (25 μg, 50 μg, 75 μg, 100 μg, 125 μg, and 150 μg). K26ApoE (SEQ ID NO: 139) having the sequence:\nBrain tissue as was collected 1 h following EB injection. All injections were at the femoral vein."}}, "note": "Where no end group is shown, it is not given here.", "data": [{"compound": "Cc1cc(-c2ccc(/N=N/c3ccc4c(S(=O)(=O)[O-])cc(S(=O)(=O)[O-])c(N)c4c3O)c(C)c2)ccc1/N=N/c1ccc2c(S(=O)(=O)[O-])cc(S(=O)(=O)[O-])c(N)c2c1O.[Na+].[Na+].[Na+].[Na+]", "note": "[EB, Evan's Blue]", "values": [{"measurement": "EB stain in organs", "setting": "[1]; EB injected without K16ApoE", "result": "Kidney, spleen, liver and heart show some EB-stain"}, {"measurement": "time post EB administration from which dye is observed in brain", "setting": "[2]", "result": 15, "unit": "min"}, {"measurement": "time EB is retained well in the brain", "setting": "[2]; dye remains intense", "result": "up to 4 h"}, {"measurement": "time EB is probably retained in the brain (less intense dye)", "setting": "[2]; longest time point tested", "result": "up to 24 h"}]}, {"compound": "KKKKKKKKKKKKKKKKKKKKKKKKKK- LRVRLASHLRKLRKRLLRDA (KKKKKKKKKKKKKKKKKKKKKKKKKKLRVRLASHLRKLRKRLLRDA) [K26ApoE]", "values": [{"measurement": "EB dye in brain", "setting": "blood-brain barrier; 25 μg peptide", "result": "no dye was observed"}, {"measurement": "EB dye in brain", "setting": "blood-brain barrier; 50 μg peptide", "result": "only a small amount of dye present"}, {"measurement": "EB dye in brain", "setting": "blood-brain barrier; 75 μg peptide", "result": "Increasing EB is observed"}, {"measurement": "effectiveness in delivering EB to the brain relative to K16ApoE", "setting": "blood-brain barrier; comparison of peptide amounts needed", "result": "approximately two-fold"}]}, {"compound": "KKKKKKKKKKKKKKKKLRVRLASHLRKLRKRLLRDA [K16ApoE, KKKKKKKKKKKKKKKKLRVRLASHLRKLRKRLLRDA]", "values": [{"measurement": "EB in brain", "setting": "[1]; 0-150 μg K16ApoE, EB 10 min later", "result": "EB goes into brain only after injection of the peptide"}, {"measurement": "EB stain in organs", "setting": "[1]; EB injected after K16ApoE injection", "result": "Kidney, spleen and liver are stained with EB"}]}]}
